41 compounds from patent US20250171438A1 (Agios Pharmaceuticals, Inc., priority 2022, published 2025) can be followed below.

In the first assay the target is T1, human PAH with the R408W mutation (Homo sapiens, UniProt P00439, R408W).
T1 construct: expressed in transfected cells
T1 sequence (P00439 1-452 R408W): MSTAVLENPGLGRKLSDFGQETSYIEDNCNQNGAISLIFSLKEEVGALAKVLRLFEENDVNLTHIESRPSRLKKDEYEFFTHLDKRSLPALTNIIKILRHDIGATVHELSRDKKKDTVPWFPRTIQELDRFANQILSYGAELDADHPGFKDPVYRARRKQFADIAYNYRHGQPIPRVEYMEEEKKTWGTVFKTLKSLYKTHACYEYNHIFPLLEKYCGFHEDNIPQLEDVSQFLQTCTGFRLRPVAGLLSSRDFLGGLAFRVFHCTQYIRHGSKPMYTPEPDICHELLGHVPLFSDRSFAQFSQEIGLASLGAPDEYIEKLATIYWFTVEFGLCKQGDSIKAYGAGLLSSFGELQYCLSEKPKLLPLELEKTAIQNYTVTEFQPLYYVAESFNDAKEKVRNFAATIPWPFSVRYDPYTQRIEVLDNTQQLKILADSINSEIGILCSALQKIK
Kind of assay: Cell Based Phenylalanine Flux Assay. As to conditions: A375 cells expressing human R408W PAH; 24 hrs compound incubation; 13C-Tyrosine by LC-MS; average where tested multiple times; read-out: AC50. More on the design: scale not given here.
For orientation: AC50 means the concentration giving half of the maximal activity seen. In the case of `Cn1cc(C(F)(F)C(=O)N2CCc3[nH]cnc3[C@@H]2c2nc3ccccc3s2)cn1` [Example 1556, (R)-1-(4-(benzo[d]thiazol-2-yl)-6,7-dihydro-1H-imidazo[4,5-c]pyridin-5(4H)-yl)-2,2-difluoro-2-(1-methyl-1H-pyrazol-4-yl)ethanone], the AC50 fell in the range of 1000 to 5000 nM.
In the case of `O=C(c1cnc(-c2ccc(C(F)(F)F)nc2)s1)N1CCc2[nH]cnc2[C@H]1c1nc2ccccc2s1` [Example 1356], the AC50 was 500 to 1000 nM.
As to `O=C(c1nnc(-c2ccc(F)cc2F)o1)N1CCc2[nH]cnc2[C@@H]1c1nc2c(F)cccc2s1` [Example 1875, (R)-(5-(2,4-difluorophenyl)-1,3,4-oxadiazol-2-yl)(4-(4-fluorobenzo[d]thiazol-2-yl)-6,7-dihydro-1H-imidazo[4,5-c]pyridin-5(4H)-yl)methanone], the AC50 was in the range of 1000 to 5000 nM.
Same read-out and setting: the figure for `CC(C)(F)c1ncc(C(=O)N2CCc3[nH]cnc3[C@@H]2c2nc3c(F)cccc3s2)s1` [Example 1485, (R)-(4-(4-fluorobenzo[d]thiazol-2-yl)-6,7-dihydro-1H-imidazo[4,5-c]pyridin-5(4H)-yl)(2-(2-fluoropropan-2-yl)thiazol-5-yl)methanone] is 500 to 1000 nM; for `Cn1nccc1C(=O)N1CCc2[nH]cnc2[C@@H]1c1nc2ccccc2s1` [Example 1840, (R)-(4-(benzo[d]thiazol-2-yl)-6,7-dihydro-1H-imidazo[4,5-c]pyridin-5(4H)-yl)(1-methyl-1H-pyrazol-5-yl)methanone] it is greater than 5000 nM; for `Cc1cc(-c2nnc(C(=O)N3CCc4[nH]cnc4[C@@H]3c3nc4ccccc4s3)o2)nn1C` [Example 1943, (R)-(4-(benzo[d]thiazol-2-yl)-6,7-dihydro-1H-imidazo[4,5-c]pyridin-5(4H)-yl)(5-(1,5-dimethyl-1H-pyrazol-3-yl)-1,3,4-oxadiazol-2-yl)methanone] it is 1000 to 5000 nM.
The same measure, in the same setting: for `O=C(c1cnn2cc(CN3CCC(F)(F)C3)ccc12)N1CCc2[nH]cnc2[C@H]1c1nc2ccccc2s1` [Example 1313] the value was 500 to 1000 nM; for `Cn1ncc(Cl)c1C(=O)N1CCc2[nH]cnc2[C@H]1c1nc2c(F)cccc2s1` [Example 1733], 500 to 1000 nM.
On the same count and under the same terms, for `Cc1ccc2sc([C@H]3c4nc[nH]c4CCN3C(=O)c3cncs3)nc2c1` [Example 1294, (R)-(4-(5-methylbenzo[d]thiazol-2-yl)-6,7-dihydro-1H-imidazo[4,5-c]pyridin-5(4H)-yl)(thiazol-5-yl)methanone] the value was 1000 to 5000 nM; for `CC(C)(O)c1cc(C(=O)N2CCc3[nH]cnc3[C@H]2c2nc3c(F)cccc3s2)on1` [Example 2170, (S)-(4-(4-fluorobenzo[d]thiazol-2-yl)-6,7-dihydro-1H-imidazo[4,5-c]pyridin-5(4H)-yl)(3-(2-hydroxypropan-2-yl)isoxazol-5-yl)methanone], 1000 to 5000 nM.
For `CC(C)(O)c1nc(C(F)F)c(C(=O)N2CCc3[nH]cnc3[C@H]2c2nc3ccccc3s2)o1` [Example 1809], the AC50 is less than 500 nM.
Still for that read-out and setting: the figure for `CNC(C)(C)c1nc(C(F)F)c(C(=O)N2CCc3[nH]cnc3[C@@H]2c2nc3c(F)cccc3s2)o1` [Example 2070, (R)-(4-(difluoromethyl)-2-(2-(methylamino)propan-2-yl)oxazol-5-yl)(4-(4-fluorobenzo[d]thiazol-2-yl)-6,7-dihydro-1H-imidazo[4,5-c]pyridin-5(4H)-yl)methanone] is less than 500 nM; for `CC(C)(O)c1ccc2c(C(=O)N3CCc4[nH]cnc4[C@H]3c3nc4ccccc4s3)cnn2c1` [Example 1473] it is less than 500 nM; for `O=C(N1CC(F)C1)N1CCc2[nH]cnc2[C@@H]1c1nc2ccccc2s1` [Example 1690, (R)-(4-(benzo[d]thiazol-2-yl)-6,7-dihydro-1H-imidazo[4,5-c]pyridin-5(4H)-yl)(3-fluoroazetidin-1-yl)methanone] it is 1000 to 5000 nM.
The same measure, in the same setting: for `O=C(c1ocnc1-c1ccccc1)N1CCc2[nH]cnc2[C@H]1c1nc2ccccc2s1` [Example 1442] the value was 500 to 1000 nM; for `Cc1nc(C)c(C(=O)N2CCc3[nH]cnc3[C@H]2c2nc3ccccc3s2)s1` [Example 1177], 500 to 1000 nM.
In the case of `O=C(CCc1nc(Cl)cs1)N1CCc2[nH]cnc2[C@@H]1c1nc2ccccc2s1` [Example 1024, (R)-1-(4-(benzo[d]thiazol-2-yl)-6,7-dihydro-1H-imidazo[4,5-c]pyridin-5(4H)-yl)-3-(4-chlorothiazol-2-yl)propan-1-one], the AC50 was greater than 5000 nM.
Same read-out and setting: for `O=C(c1cn(-c2ccccn2)nc1Cl)N1CCc2[nH]cnc2[C@@H]1c1nc2ccccc2s1` [Example 1908, (R)-(4-(benzo[d]thiazol-2-yl)-6,7-dihydro-1H-imidazo[4,5-c]pyridin-5(4H)-yl)(3-chloro-1-(pyridin-2-yl)-1H-pyrazol-4-yl)methanone] the value was 1000 to 5000 nM.
On to `O=C(c1oc(CCC2CC2)nc1C(F)(F)F)N1CCCc2[nH]cnc2[C@@H]1c1nc2ccccc2s1` [Example 2136, (R)-(4-(benzo[d]thiazol-2-yl)-7,8-dihydroimidazo[4,5-c]azepin-5(1H,4H,6H)-yl)(2-(2-cyclopropylethyl)-4-(trifluoromethyl)oxazol-5-yl)methanone], for which the AC50 lay in the range of 500 to 1000 nM.
Take `O=C(c1oc(NC2CC2)nc1C(F)(F)F)N1CCc2[nH]cnc2[C@@H]1c1nc2ccccc2s1` [Example 1560, (R)-(4-(benzo[d]thiazol-2-yl)-6,7-dihydro-1H-imidazo[4,5-c]pyridin-5(4H)-yl)(2-(cyclopropylamino)-4-(trifluoromethyl)oxazol-5-yl)methanone]: the AC50 is less than 500 nM.
`O=C(C1CN(c2ncccc2F)C1)N1CCc2[nH]cnc2[C@H]1c1nc2ccccc2s1` [Example 1909]: the AC50 fell in the range of 500 to 1000 nM.
Same read-out and setting: for `N#Cc1ncoc1C(=O)N1CCc2[nH]cnc2[C@@H]1c1nc2ccccc2s1` [Example 1584, (R)-5-(4-(benzo[d]thiazol-2-yl)-4,5,6,7-tetrahydro-1H-imidazo[4,5-c]pyridine-5-carbonyl)oxazole-4-carbonitrile] the value was greater than 5000 nM; for `CC(C)(O)c1nc(Br)c(C(=O)N2CCc3[nH]cnc3[C@@H]2c2nc3c(F)cccc3s2)o1` [Example 1898, (R)-(4-bromo-2-(2-hydroxypropan-2-yl)oxazol-5-yl)(4-(4-fluorobenzo[d]thiazol-2-yl)-6,7-dihydro-1H-imidazo[4,5-c]pyridin-5(4H)-yl)methanone], 1000 to 5000 nM; for `O=C(CC1CC1)N1CCc2[nH]cnc2[C@@H]1c1nc2ccccc2[nH]1` [Example 1000, (R)-1-(4-(1H-benzo[d]imidazol-2-yl)-6,7-dihydro-1H-imidazo[4,5-c]pyridin-5(4H)-yl)-2-cyclopropylethanone], 1000 to 5000 nM.
The same measure, in the same setting: the figure for `O=C(c1ocnc1C1CC1)N1CCCC2NC=NC2[C@H]1c1nc2ccccc2s1` (stereo partly drawn) [Example 2167, ((4S)-4-(benzo[d]thiazol-2-yl)-3a,4,6,7,8,8a-hexahydroimidazo[4,5-c]azepin-5(1H)-yl)(4-cyclopropyloxazol-5-yl)methanone] is less than 500 nM.

The same assay, now with this note: A375 cells expressing human R408W PAH; 24 hrs with compound; 13C-Tyrosine by LC-MS; average where tested multiple times.
For the compound `COCCc1ccc2c(C(=O)N3CCc4[nH]cnc4C3c3nc4ccccc4s3)c(C(F)F)nn2c1` (centres unmarked), the AC50 result was “E, E”.

Staying with this assay, now noted: A375 cells expressing human R408W PAH; 24 hrs with compound; 13C-Tyrosine by LC-MS; average where tested multiple times; read-out: AC50.
Take `O=C(c1nccs1)N1CCc2[nH]cnc2C1c1nc2ccc(Cl)cc2[nH]1` (centres unmarked): the AC50 was in the range of 1000 to 5000 nM.
Still for that read-out and setting: the figure for `O=C(c1nc2ccc(F)cc2s1)N1CCc2[nH]cnc2[C@H]1c1nc2ccccc2[nH]1` [(S)-(4-(1H-benzo[d]imidazol-2-yl)-6,7-dihydro-1H-imidazo[4,5-c]pyridin-5(4H)-yl)(6-fluorobenzo[d]thiazol-2-yl)methanone] is 1000 to 5000 nM; for `O=C(c1cnco1)N1CCCc2[nH]cnc2C1c1nc2ccccc2s1` (centres unmarked) it is 1000 to 5000 nM; for `O=C(Cn1cncn1)N1CCc2[nH]cnc2C1c1nc2ccccc2s1` (centres unmarked) it is greater than 5000 nM.
Consider `O=C(c1ccon1)N1CCc2[nH]cnc2[C@H]1c1nc2ccccc2[nH]1` [(S)-(4-(1H-benzo[d]imidazol-2-yl)-1,4,6,7-tetrahydro-5H-imidazo[4,5-c]pyridin-5-yl)(isoxazol-3-yl)methanone], for which the AC50 lay in the range of 1000 to 5000 nM.
Turning to `O=C(c1nc2ccccc2s1)N1CCc2[nH]cnc2C1c1nc2ccc(Br)cc2[nH]1` (centres unmarked), the AC50 is 1000 to 5000 nM.
Regarding `CC(C)(O)c1cc(C(=O)N2CCc3[nH]cnc3C2c2nc3ccccc3s2)on1` (centres unmarked), the AC50 is greater than 5000 nM.
Still for that read-out and setting: the figure for `Cc1nc(CCCN(C)C)oc1C(=O)N1CCc2[nH]cnc2C1c1nc2ccccc2s1` (centres unmarked) is 1000 to 5000 nM; for `Cc1nnc(N2CC(C(=O)N3CCc4[nH]cnc4[C@H]3c3nc4ccccc4s3)C2)o1` (single isomer, unassigned) it is greater than 5000 nM.
The same measure, in the same setting: the figure for `c1ccc2sc([C@@H]3c4nc[nH]c4CCN3CC3CC3)nc2c1` (single isomer, unassigned) is 1000 to 5000 nM; for `N#Cc1ccn2ncc(C(=O)N3CCc4[nH]cnc4C3c3nc4ccc(Cl)cc4[nH]3)c2c1` (centres unmarked) it is greater than 5000 nM; for `O=C(c1cnn2ccccc12)N1CCc2[nH]cnc2C1c1nc2ccc(Cl)cc2s1` (centres unmarked) it is greater than 5000 nM.
Still for that read-out and setting: for `Cc1nnc(CC(=O)N2CCc3[nH]cnc3[C@H]2c2nc3ccccc3[nH]2)o1` (single isomer, unassigned) the value was greater than 5000 nM; for `CC(C)(O)c1cc(C(=O)N2CCc3[nH]cnc3C2c2nc3c(F)cccc3s2)ns1` (centres unmarked), greater than 5000 nM.
`c1ccc2[nH]c(C3c4nc[nH]c4CCN3CCCc3nccs3)nc2c1` (centres unmarked): the AC50 fell in the range of 1000 to 5000 nM.
